# Results as given in PubChem BioAssay AID330 (DTP/NCI, 2004).
# Where “and” joins values, the source holds several entries; their conditions need not be identical. Equal entries are not always repeated. Toxic doses and inconclusive results are not listed.
# Tested on: P388 leukemia ip, CD2F1 mice, survival T/C
# Experiment: NCI In Vivo Anticancer Drug Screen. Data for tumor model P388 Leukemia (intraperitoneal) in CD2F1 (CDF1) mice
# Details: endpoint: median survival time, higher = longer survival
# In short: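 Mice carrying the transplanted tumor received test compound or vehicle. Survival was recorded in each group, and the value is the treated-group measurement divided by that of the vehicle-treated control group.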
# [1] = dose: 60.0 mg/kg/injection, schedule: Q01DX005 (ip), vehicle: saline with Tween-80
# [2] = dose: 120.0 mg/kg/injection, schedule: Q01DX005 (ip), vehicle: saline with Tween-80
# [3] = dose: 240.0 mg/kg/injection, schedule: Q01DX005 (ip), vehicle: saline with Tween-80
# [4] = dose: 50.0 mg/kg/injection, schedule: Q01DX009 (ip), vehicle: Klucel (hydroxypropylcellulose) (HPC)
# [5] = dose: 100.0 mg/kg/injection, schedule: Q01DX009 (ip), vehicle: Klucel (hydroxypropylcellulose) (HPC)
# [6] = dose: 200.0 mg/kg/injection, schedule: Q01DX009 (ip), vehicle: Klucel (hydroxypropylcellulose) (HPC)
# [7] = dose: 50.0 mg/kg/injection, schedule: Q01DX005 (ip), vehicle: saline with Tween-80
# [8] = dose: 25.0 mg/kg/injection, schedule: Q01DX009 (ip), vehicle: Klucel (hydroxypropylcellulose) (HPC)
# [9] = dose: 12.5 mg/kg/injection, schedule: Q01DX009 (ip), vehicle: distilled water + Tween-80
# [10] = dose: 25.0 mg/kg/injection, schedule: Q01DX009 (ip), vehicle: distilled water + Tween-80
# [11] = dose: 100.0 mg/kg/injection, schedule: Q01DX005 (ip), vehicle: saline with Tween-80
# [12] = dose: 200.0 mg/kg/injection, schedule: Q01DX005 (ip), vehicle: saline with Tween-80
# [13] = dose: 60.0 mg/kg/injection, schedule: Q01DX005 (ip), vehicle: saline
# [14] = dose: 120.0 mg/kg/injection, schedule: Q01DX005 (ip), vehicle: saline
# [15] = dose: 240.0 mg/kg/injection, schedule: Q01DX005 (ip), vehicle: saline
compound,measurement,setting,value
COc1cccc(C(Nc2nncs2)Nc2nncs2)c1,T/C,[1],97 % of control
same,T/C,[2],97 % of control
same,T/C,[3],122 % of control
O=C(N/C=C/c1ccco1)NC1CCCCCCCCCCC1,T/C,"dose: 12.5 mg/kg/injection, schedule: Q01DX005 (ip), vehicle: Klucel (hydroxypropylcellulose) (HPC)",95 % of control
same,T/C,"dose: 25.0 mg/kg/injection, schedule: Q01DX005 (ip), vehicle: Klucel (hydroxypropylcellulose) (HPC)",92 % of control
same,T/C,"dose: 50.0 mg/kg/injection, schedule: Q01DX005 (ip), vehicle: Klucel (hydroxypropylcellulose) (HPC)",89 % of control
OP12(OC(C(F)(F)F)(C(F)(F)F)c3ccccc31)OC(C(F)(F)F)(C(F)(F)F)c1ccccc12,T/C,"dose: 100.0 mg/kg/injection, schedule: Q04DX002 (ip), vehicle: Klucel (hydroxypropylcellulose) (HPC)",97 % of control
same,T/C,"dose: 200.0 mg/kg/injection, schedule: Q04DX002 (ip), vehicle: Klucel (hydroxypropylcellulose) (HPC)",98 % of control
CCNC(=O)c1ccccc1S(C)=O (configuration not stated),T/C,[1],99 % of control
same,T/C,[2],111 % of control
same,T/C,[3],104 % of control
Cc1cc2c(cc1C)C(=O)CCC(=O)N2,T/C,[1],102 % of control
same,T/C,[2],97 % of control
same,T/C,[3],96 % of control
C[As](C)[Se]CC1OC2OC(C)(C)OC2C2OC(C)(C)OC12 (configuration not stated),T/C,[4],89 % of control
same,T/C,[5],90 % of control
same,T/C,[6],92 % of control
FC(F)(F)c1cccc(N=Cc2ccc(C=Nc3cccc(C(F)(F)F)c3)cc2)c1,T/C,"dose: 50.0 mg/kg/injection, schedule: Q01DX009 (ip), vehicle: saline",99 % of control
same,T/C,"dose: 100.0 mg/kg/injection, schedule: Q01DX009 (ip), vehicle: saline",99 % of control
same,T/C,"dose: 200.0 mg/kg/injection, schedule: Q01DX009 (ip), vehicle: saline",97 % of control
CC1(C)CC[P+](CC[P+]2(c3ccccc3)CCC(C)(C)c3ccccc32)(c2ccccc2)c2ccccc21 (configuration not stated),T/C,"dose: 0.75 mg/kg/injection, schedule: Q01DX005 (ip), vehicle: saline",103 % of control
same,T/C,"dose: 1.5 mg/kg/injection, schedule: Q01DX005 (ip), vehicle: saline",101 % of control
same,T/C,"dose: 3.0 mg/kg/injection, schedule: Q01DX005 (ip), vehicle: saline",103 % of control
same,T/C,"dose: 3.12 mg/kg/injection, schedule: Q01DX005 (ip), vehicle: suspension in saline",89 % of control
same,T/C,"dose: 12.5 mg/kg/injection, schedule: Q01DX005 (ip), vehicle: saline with Tween-80",100 % of control
same,T/C,"dose: 25.0 mg/kg/injection, schedule: Q01DX005 (ip), vehicle: saline with Tween-80",100 % of control
same,T/C,[7],102 % of control
Cc1ccc(S(=O)(=O)NN=c2cccccc2)cc1,T/C,"dose: 100.0 mg/kg/injection, schedule: Q01DX001 (ip), vehicle: DMSO",101 % of control
same,T/C,"dose: 200.0 mg/kg/injection, schedule: Q01DX001 (ip), vehicle: DMSO",97 % of control
COc1nc(=O)n(C2C=CC(=O)O2)cc1F (configuration not stated),T/C,"dose: 20.0 mg/kg/injection, schedule: Q01DX009 (ip), vehicle: saline",158 % of control and 173 % of control
same,T/C,"dose: 40.0 mg/kg/injection, schedule: Q01DX009 (ip), vehicle: saline",174 % of control and 196 % of control
same,T/C,"dose: 80.0 mg/kg/injection, schedule: Q01DX009 (ip), vehicle: saline",102 % of control
COc1ccc(OC)c(NC(=O)CCCC(=O)C(C#N)c2ccccc2C)c1 (configuration not stated),T/C,[1],105 % of control
same,T/C,[2],105 % of control
same,T/C,[3],104 % of control
COC(CNc1nc2c(s1)c1c(O)c3c(O)c(C)c4c(c32)C(=O)C(C)(O/C=C\C(OC)C(C)C(OC(C)=O)C(C)C(O)C(C)C(O)C(C)/C=C/C=C(/C)C(=O)N1)O4)OC (configuration not stated),T/C,[8],93 % of control
same,T/C,[4],95 % of control
same,T/C,[5],93 % of control
same,T/C,[6],94 % of control
CCOc1c(N=Nc2ccccc2C)c(C)nn1C(N)=S,T/C,"dose: 60.0 mg/kg/injection, schedule: Q01DX005 (ip), vehicle: Klucel + Tween-80",100 % of control
same,T/C,"dose: 120.0 mg/kg/injection, schedule: Q01DX005 (ip), vehicle: Klucel + Tween-80",97 % of control
same,T/C,"dose: 240.0 mg/kg/injection, schedule: Q01DX005 (ip), vehicle: Klucel + Tween-80",100 % of control
O=c1[nH]c(=O)n(C2CC(O)C(CO)O2)cc1C(F)(F)F (configuration not stated),T/C,"dose: 20.0 mg/kg/injection, schedule: Q01DX009 (ip), vehicle: saline with Tween-80",111 % of control
same,T/C,"dose: 31.25 mg/kg/injection, schedule: Q01DX009 (ip), vehicle: Klucel (hydroxypropylcellulose) (HPC)",120 % of control
same,T/C,"dose: 40.0 mg/kg/injection, schedule: Q01DX009 (ip), vehicle: saline with Tween-80",117 % of control
same,T/C,"dose: 62.5 mg/kg/injection, schedule: Q01DX009 (ip), vehicle: Klucel (hydroxypropylcellulose) (HPC)",151 % of control
same,T/C,"dose: 80.0 mg/kg/injection, schedule: Q01DX009 (ip), vehicle: saline with Tween-80",119 % of control
same,T/C,"dose: 125.0 mg/kg/injection, schedule: Q01DX005 (ip), vehicle: Klucel (hydroxypropylcellulose) (HPC)",152 % of control
same,T/C,"dose: 125.0 mg/kg/injection, schedule: Q01DX009 (ip), vehicle: Klucel (hydroxypropylcellulose) (HPC)",178 % of control and 183 % of control
same,T/C,"dose: 160.0 mg/kg/injection, schedule: Q01DX009 (ip), vehicle: saline with Tween-80",111 % of control
same,T/C,"dose: 250.0 mg/kg/injection, schedule: Q01DX005 (ip), vehicle: Klucel (hydroxypropylcellulose) (HPC)",161 % of control
same,T/C,"dose: 250.0 mg/kg/injection, schedule: Q01DX009 (ip), vehicle: Klucel (hydroxypropylcellulose) (HPC)",176 % of control
same,T/C,"dose: 320.0 mg/kg/injection, schedule: Q01DX009 (ip), vehicle: saline with Tween-80",102 % of control
same,T/C,"dose: 500.0 mg/kg/injection, schedule: Q01DX005 (ip), vehicle: Klucel (hydroxypropylcellulose) (HPC)",151 % of control
same,T/C,"dose: 500.0 mg/kg/injection, schedule: Q01DX009 (ip), vehicle: Klucel (hydroxypropylcellulose) (HPC)",100 % of control and 104 % of control
same,T/C,"dose: 640.0 mg/kg/injection, schedule: Q01DX009 (ip), vehicle: saline with Tween-80",88 % of control
CN(C)CCC(=O)c1ccc([N+](=O)[O-])cc1,T/C,"dose: 25.0 mg/kg/injection, schedule: Q01DX009 (ip), vehicle: saline with Tween-80",94 % of control
same,T/C,"dose: 50.0 mg/kg/injection, schedule: Q01DX009 (ip), vehicle: saline with Tween-80",113 % of control
same,T/C,"dose: 100.0 mg/kg/injection, schedule: Q01DX009 (ip), vehicle: saline with Tween-80",108 % of control
same,T/C,"dose: 200.0 mg/kg/injection, schedule: Q01DX009 (ip), vehicle: saline with Tween-80",106 % of control
FC(F)(F)c1ccc2cc(C3(C4CCNCC4)CCCO3)c3ccc(C(F)(F)F)cc3c2c1 (configuration not stated),T/C,[9],104 % of control
same,T/C,[10],95 % of control
C=CCOc1ccccc1/C(Cl)=N/Nc1ccc([N+](=O)[O-])cc1[N+](=O)[O-],T/C,"dose: 100.0 mg/kg/injection, schedule: Q04DX003 (ip), vehicle: saline with Tween-80",97 % of control
same,T/C,"dose: 200.0 mg/kg/injection, schedule: Q04DX003 (ip), vehicle: saline with Tween-80",94 % of control
same,T/C,"dose: 400.0 mg/kg/injection, schedule: Q04DX003 (ip), vehicle: saline with Tween-80",89 % of control
CCSc1nc(N)c(Br)c(Sc2nc(N)nc3nc[nH]c23)n1,T/C,[7],103 % of control
same,T/C,[11],101 % of control
same,T/C,[12],97 % of control
COC(=O)C(OC)(OC)C(O)C(C)C (configuration not stated),T/C,[13],104 % of control
same,T/C,[14],103 % of control
same,T/C,[15],103 % of control
N[C@H]1CCC[C@@H](O)C1O (some centres not stated),T/C,[13],103 % of control
same,T/C,[14],100 % of control
same,T/C,[15],109 % of control
C=C1C(=O)OC2C=C(CCC(C)=O)C(C)C(OC(C)=O)CC12 (configuration not stated),T/C,[8],100 % of control
same,T/C,[4],102 % of control
same,T/C,[5],94 % of control
same,T/C,[6],94 % of control
CCOC(=O)c1[nH]c(=O)[nH]c(=O)c1CBr,T/C,[9],98 % of control
same,T/C,[10],98 % of control
same,T/C,"dose: 50.0 mg/kg/injection, schedule: Q01DX009 (ip), vehicle: distilled water + Tween-80",98 % of control
same,T/C,"dose: 100.0 mg/kg/injection, schedule: Q01DX009 (ip), vehicle: distilled water + Tween-80",98 % of control
O=C1c2ccccc2C(=O)N1CCCN1CCOCCOCCN(CCCN2C(=O)c3ccccc3C2=O)CCOCC1,T/C,"dose: 50.0 mg/kg/injection, schedule: Q01DX005 (ip), vehicle: saline + Tween-80 + alcohol",105 % of control
same,T/C,"dose: 100.0 mg/kg/injection, schedule: Q01DX005 (ip), vehicle: saline + Tween-80 + alcohol",97 % of control
CN1C(=O)CN2CCc3ccccc3C2c2cc(Cl)ccc21 (configuration not stated),T/C,[7],92 % of control
same,T/C,[11],98 % of control
same,T/C,[12],98 % of control
